Laboratory results taken from paper PMC12320299 (Chemical Science, 2025).

System: SW480 cancer cells
Assay: Proteome profiling of compound-treated SW480 cancer cells (24 h, approx. IC50, CYT and NE fractions)
Assay type: cell-based, human
Description: To gain insight into potential modes of action and derive structure–activity relationships on a molecular level, proteomic profiling experiments were carried out based on label-free quantification (LFQ) by nano-liquid chromatography tandem mass spectrometry (nLC-MS/MS). […] Six replicates were used per condition. The perturbations were evaluated at subcellular resolution by fractionating cells into cytoplasmic (CYT) and nuclear (NE) protein fractions. Those have been separately proteolytically digested and analysed (Fig. 3A). The perturbations with the 3-Et-NQ and 3-Morph-NQ complexes were performed against their respective solvent-treated controls (CON), yielding a total of 72 samples. […] Statistical significance of individual protein regulations was calculated by multiple testing-corrected P-values based on 5% false discovery rate (FDR = 0.05 and S0 = 0.1).
The position of each group represents the summed fold-changes of the individual proteins in the group according to the subcellular space, i.e., CYT and NE fractions, while the size represents the number of proteins in each group. […]
Proteome profiling of compound-treated SW480 cancer cells […]
cells per well and left to adhere in complete cell culture medium. After 24 h, the medium was exchanged with fresh complete medium (DMSO mock control) or fresh medium containing […]
solution in DMSO, respectively) and incubated for another 24 h. Each condition was carried out in hexuplicates. The cells were processed according to a nucleocytoplasmic fractionation protocol as previously described.3 All steps were performed on ice. The medium was removed, and the cells were washed twice with 1×PBS (phosphate buffered saline, 3 mL). Then, PBS was thoroughly removed. Isotonic lysis buffer (10 mM HEPES, 10 mM NaCl, 3.5 mM MgCl2, 1 mM EGTA, 0.25 M Sucrose, 0.5% Triton X-100) containing protease inhibitors (1% PMSF, Sigma, and 1% protease and phosphatase inhibitor cocktail, Roche) was added to the flasks, the cells were scraped off and transferred into labelled 15 mL Falcon tubes. The cellular membrane was ruptured using shear stress by pressing the cell suspension through a syringe 9–12 times. Membrane rupture with intact nuclei was monitored under a microscope. After centrifugation (960 g, 5 min), the supernatant containing the cytoplasmic (CYT) proteins was transferred into new tubes containing ice-cold ethanol (1 : 5, HPLC grade) and precipitated […]
overnight at –20 °C. The pellet containing the nuclei was incubated with a hypertonic solution (10 mM Tris-HCl, 1 mM EDTA and 0.5 M NaCl) and subsequently diluted 1:10 with NP-40 buffer (10 mm Tris-HCl, 1 mm EDTA and 0.5% Triton X-100) containing protease inhibitors (1% PMSF, Sigma, and 1% protease and phosphatase inhibitor cocktail, Roche). After centrifugation (960 g, 5 min), the soluble nuclear (NE) proteins were also transferred into new tubes containing ice-cold ethanol (1 : 5, HPLC grade) and precipitated overnight at –20 °C.
The precipitated proteins were finally pelleted by centrifugation (5000 g, 30 min, 4 °C), the solution was decanted and the pellet dried under vacuum.

Compound: Cc1ccc(C(C)C)cc1.O=C1C(CN2CCOCC2)=C2[O][Ru][O]C2(n2cccn2)c2ccccc21 (stereo not drawn) [Compound 1b]
- N° significantly regulated proteins, Total (CYT and NE): 1498
- GO BP Cell cycle, summed fold-changes (CYT fraction): -2.0
- GO BP Cell division, summed fold-changes (CYT fraction): 1.8
- GO BP Chromatin organization, summed fold-changes (CYT fraction): -9.6
- GO BP DNA damage response, summed fold-changes (CYT fraction): -1.3
- GO BP DNA repair, summed fold-changes (CYT fraction): -5.7
- GO BP DNA replication, summed fold-changes (CYT fraction): -0.75
- GO BP Intracellular protein transport, summed fold-changes (CYT fraction): -1.2
- GO BP Mitotic cytokinesis, summed fold-changes (CYT fraction): 0.635
- GO BP Negative regulation of DNA-templated transcription, summed fold-changes (CYT fraction): -4.7
- GO BP Nucleocytoplasmic transport, summed fold-changes (CYT fraction): 0.157
- GO BP Positive regulation of DNA-templated transcription, summed fold-changes (CYT fraction): -4.1
- GO BP Proteasome-mediated ubiquitin-dependent protein catabolic process, summed fold-changes (CYT fraction): 0.556
- GO BP Protein folding, summed fold-changes (CYT fraction): 0.665
- GO BP Protein stabilization, summed fold-changes (CYT fraction): 1.4
- GO BP Protein transport, summed fold-changes (CYT fraction): -4.1
- GO BP Purine nucleotide biosynthetic process, summed fold-changes (CYT fraction): -1.4
- GO BP RNA splicing, summed fold-changes (CYT fraction): 2.7
- GO BP Regulation of apoptotic process, summed fold-changes (CYT fraction): -0.9
- GO BP Regulation of cell fate specification, summed fold-changes (CYT fraction): -2.6
- GO BP Regulation of double-strand break repair, summed fold-changes (CYT fraction): -0.5
- GO BP Regulation of stem cell differentiation, summed fold-changes (CYT fraction): -2.1
- GO BP Response to oxidative stress, summed fold-changes (CYT fraction): -2.8
- GO BP Ribosomal small subunit biogenesis, summed fold-changes (CYT fraction): 3.8
- GO BP Ribosome biogenesis, summed fold-changes (CYT fraction): 1.0
- GO BP Ubiquitin-dependent protein catabolic process, summed fold-changes (CYT fraction): -4.3
- GO BP Vesicle-mediated transport, summed fold-changes (CYT fraction): -2.0
- GO BP mRNA processing, summed fold-changes (CYT fraction): 2.8
- GO BP mRNA splicing, via spliceosome, summed fold-changes (CYT fraction): 5.8
- GO BP mRNA transport, summed fold-changes (CYT fraction): 3.1
- GO BP rRNA processing, summed fold-changes (CYT fraction): 6.9
- GO CC Azurophil granule lumen, summed fold-changes (CYT fraction): -3.8
- GO CC Chromatin, summed fold-changes (CYT fraction): -3.8
- GO CC Chromosome, centromeric region, summed fold-changes (CYT fraction): 2.2
- GO CC Chromosome, summed fold-changes (CYT fraction): 0.0303
- GO CC Chromosome, telomeric region, summed fold-changes (CYT fraction): -5.4
- GO CC Condensin complex, summed fold-changes (CYT fraction): 1.7
- GO CC Cytoskeleton, summed fold-changes (CYT fraction): 2.2
- GO CC Endosome, summed fold-changes (CYT fraction): -2.0
- GO CC Extracellular exosome, summed fold-changes (CYT fraction): -48.5
- GO CC Fibrillar center, summed fold-changes (CYT fraction): 1.3
- GO CC Ficolin-1-rich granule lumen, summed fold-changes (CYT fraction): -4.9
- GO CC Focal adhesion, summed fold-changes (CYT fraction): -5.9
- GO CC Intracellular membrane-bounded organelle, summed fold-changes (CYT fraction): -2.0
- GO CC Kinetochore, summed fold-changes (CYT fraction): 1.6
- GO CC Lipid droplet, summed fold-changes (CYT fraction): -1.3
- GO CC Lysosome, summed fold-changes (CYT fraction): -2.9
- GO CC Microtubule cytoskeleton, summed fold-changes (CYT fraction): 1.6
- GO CC Mitochondrion, summed fold-changes (CYT fraction): -13.5
- GO CC Nuclear envelope, summed fold-changes (CYT fraction): -0.6
- GO CC Nuclear speck, summed fold-changes (CYT fraction): 3.4
- GO CC Nucleolus, summed fold-changes (CYT fraction): 1.4
- GO CC Nucleoplasm, summed fold-changes (CYT fraction): -8.6
- GO CC Nucleus, summed fold-changes (CYT fraction): -23.5
- GO CC Proteasome complex, summed fold-changes (CYT fraction): 0.475
- GO CC Protein-containing complex, summed fold-changes (CYT fraction): -2.9
- GO CC Ribonucleoprotein complex, summed fold-changes (CYT fraction): 3.1
- GO CC SCAR complex, summed fold-changes (CYT fraction): 0.9
- GO CC Small-subunit processome, summed fold-changes (CYT fraction): 4.9
- GO CC Spliceosomal complex, summed fold-changes (CYT fraction): 2.7
- GO CC Transcription repressor complex, summed fold-changes (CYT fraction): -2.7
- GO CC Vesicle, summed fold-changes (CYT fraction): -2.7
- KEGG pathway ATP-dependent chromatin remodeling, summed fold-changes (CYT fraction): -1.8
- KEGG pathway Apoptosis, summed fold-changes (CYT fraction): 2.5
- KEGG pathway Basal transcription factors, summed fold-changes (CYT fraction): -1.0
- KEGG pathway Biosynthesis of amino acids, summed fold-changes (CYT fraction): -5.4
- KEGG pathway Biosynthesis of cofactors, summed fold-changes (CYT fraction): 2.8
- KEGG pathway Cell cycle, summed fold-changes (CYT fraction): -3.3
- KEGG pathway Nucleocytoplasmic transport, summed fold-changes (CYT fraction): 0.8
- KEGG pathway Polycomb repressive complex, summed fold-changes (CYT fraction): -2.9
- KEGG pathway Proteasome, summed fold-changes (CYT fraction): -0.152
- KEGG pathway Ribosome biogenesis in eukaryotes, summed fold-changes (CYT fraction): 1.9
- GO BP Cell cycle, summed fold-changes (NE fraction): 26.1
- GO BP Cell division, summed fold-changes (NE fraction): 26.9
- GO BP Chromatin organization, summed fold-changes (NE fraction): 28.0
